Assay results published in US9446116B2, “Peptide sequences and compositions” (priority 2006, dated 2016).

Columns and labels:
primary splenocytes = type: cell-based, C57BL/6-Tg(HLA-A2.1)1Enge/J mice; details: stimulation with P6 (data not shown)
Influenza A/PR/8/34 = type: in vivo, C57BL/6-Tg(HLA-A2.1)1Enge/J mice

Substance | IL-4 production (primary splenocytes) | succumbed to infection (mortality) (Influenza A/PR/8/34; CD8 depletion (anti-CD8 sera days 19 and 22), […], FIG. 3A) [%] | mortality rate (Influenza A/PR/8/34; absence of CD8 depletion (irrelevant sera), FIG. 3B) [%]
IIGILHLILWILDRLFFKCIYRLF [P6] | failure of stimulation with P6 to induce any IL-4 production |  | 
NRP-v: Lysozyme (Sigma) denatured by boiling, used as the control non relevant preparation |  | 100 | 100
